# Data from patent US6420338B1, “Inhibition of the Src kinase family pathway as a method of treating HBV infection and hepatocellular carcinoma” (New York University Medical Center, priority 1997, dated 2002).
# Tested on: c-Src
# Experiment: c-Src immunoprecipitation in vitro kinase assay (auto-phosphorylation and enolase trans-phosphorylation)
# Assay type: cell-based
# Details: serum-starved NIH 3T3 cells; PDGF 100 ng/ml for 5 min
# Protocol: FIGS. 1A-1C Serum-starved NIH 3T3 cells were infected with AdCMV-X or -Xo viruses, c-Src or c-Fyn was immunoprecipitated, the pellet washed and assayed by incubation with the substrate enolase and [γ-^32P] ATP. Products were resolved by SDS-10%-PAGE then visualized and quantitiated by PhosphorImage analysis. c-Src (FIG. 1A) or c-Fyn (FIG. 1B) were immunoprecipitated 8 h p.i. from NIH 3T3 cell lysates expressing HBx or HBxo. Where indicated, cells were incubated with PDGF (100 ng/ml) for 5 min. (FIG. 1C) Transfected HBx activates c-Src in the cytoplasm. Chang cells were transfected with 10 μg pCMV-Xo (HBxo), PCMV-X (wt HBx) or pCMV-XNLS (nuclear HBx) expression plasmids, serum-starved for 24 h, c-Src immunoprecipitated and subjected to an in vitro trans-phosphorylation assay, then analyzed as above. […]
# Src kinase assays were carried out essentially as described (Kypta et al., 1990, Cell 62:481-492). […] Src and Fyn kinase activity were measured by immunoprecipitating either Src (1 μg anti-Src antibodies) or Fyn (1 μg/ml anti-Fyn antibodies) from equal amounts of cell lysate. […] For the reactions containing the Src peptide substrate, TCA was added to a final concentration of 20%, an aliquot was spotted onto phosphocellulose paper (UBI), the filters were washed 3×5 minutes in 0.75% phosphoric acid and once in acetone, dried and analyzed by scintillation counting. […]
substance,measurement,value
PDGF,activation of c-Src (auto- and trans-phosphorylation),3-4 fold
